In series [1] the test system is RAW264.7. In words: Cytotoxicity against mouse RAW264.7 cells assessed as cell viability at 20 to 40 uM incubated for 24 hrs by CCK8 assay. Conditions: raw264.7, 24 h, dose 20-40 µM. The class given is toxicity, cell-based. On the technique in general: Formazan colour is commonly taken as a measure of viable cells.
Series [2] relates to RAW264.7. In words: Anti-inflammatory activity in LPS-induced mouse RAW264.7 cells assessed as reduction in iNOS level pre-incubated with compound for 1 hr followed by LPS induction and measured after 6 hrs by Western blot analysis. The class given is functional, cell-based. Conditions: dose 5-40 µM.
For series [3], the system named is RAW264.7. The series is described as follows: Inhibition of MAPK signalling pathway in LPS-induced mouse RAW264.7 cells assessed as downregulation of ERK1/2 phosphorylation pre-incubated with compound for 1 hr followed by LPS induction and measured after 10 mins by Western blot analysis. The class given is cell-based. To be noted: dose 5-40 µM.
The test system of series [4] is RAW264.7. In words: Anti-inflammatory activity in LPS-induced mouse RAW264.7 cells assessed as downregulation of TNF-alpha mRNA transcription at 10 to 40 uM pre-incubated with compound for 1 hr followed by LPS induction and measured after 6 hrs by qRT-PCR analysis. Conditions: dose 10-40 µM. It is filed as functional, cell-based. (Real-time PCR tracks product formation cycle by cycle.)

For series [5], the system named is RAW264.7. The series is described as follows: Anti-inflammatory activity in LPS-induced mouse RAW264.7 cells assessed as downregulation of iNOS mRNA transcription at 10 to 40 uM pre-incubated with compound for 1 hr followed by LPS induction and measured after 6 hrs by qRT-PCR analysis. The class given is functional, cell-based. To be noted: dose 10-40 µM.
Series [6] deals with RAW264.7. The series is described as follows: Anti-inflammatory activity in LPS-induced mouse RAW264.7 cells assessed as downregulation of IL-6 mRNA transcription at 10 to 40 uM pre-incubated with compound for 1 hr followed by LPS induction and measured after 6 hrs by qRT-PCR analysis. It is filed as functional, cell-based. Conditions: dose 10-40 µM.
In series [7] the test system is RAW264.7. The series is described as follows: Effect on JNK phosphorylation in LPS-induced mouse RAW264.7 cells at 5 to 40 uM pre-incubated with compound for 1 hr followed by LPS induction and measured after 10 mins by Western blot analysis. The class given is functional, cell-based. To be noted: dose 5-40 µM. A general note: In western blotting, separated proteins are transferred to a membrane and probed.

The subject of series [8] is RAW264.7. In words: Effect on P38 phosphorylation in LPS-induced mouse RAW264.7 cells at 5 to 40 uM pre-incubated with compound for 1 hr followed by LPS induction and measured after 10 mins by Western blot analysis. The class given is functional, cell-based. To be noted: dose 5-40 µM.
In series [9] the test system is RAW264.7. In words: Anti-inflammatory activity in LPS-induced mouse RAW264.7 cells assessed as inhibition of NO production incubated for 24 hrs by Griess reagent based microplate reader analysis. The class given is functional, cell-based. To be noted: RAW264.7, 24 h.
In series [10] the test system is RAW264.7. The series is described as follows: Anti-inflammatory activity in LPS-induced mouse RAW264.7 cells assessed as reduction in COX-2 level pre-incubated with compound for 1 hr followed by LPS induction and measured after 6 hrs by Western blot analysis. The class given is functional, cell-based. To be noted: dose 5-40 µM.
For series [11], the system named is RAW264.7. The series is described as follows: Anti-inflammatory activity in LPS-induced mouse RAW264.7 cells assessed as inhibition of NO production. It is filed as functional, cell-based.

pIC50: −log10 of the molar value. Activity calls are given as the source filed them. The calls are words filed in the database; no cut-off is given here.

Turning to `C[C@H]1CC(=O)O[C@@H]1[C@@](C)(O)/C=C/C1=CC2=CC(=O)[C@](C)(O)[C@@H](O)[C@@H]2CO1`, the Activity entry in [1] is recorded as “Non-toxic”.

As for `C[C@H]1CCO[C@@H]1[C@@](C)(O)/C=C/C1=CC2=CC(=O)[C@](C)(O)[C@@H](O)[C@@H]2CO1`, in [1], the Activity result is reported as “Non-toxic”.

Take `C[C@H]1CC(=O)O[C@@H]1[C@@](C)(O)/C=C/C1=CC2=CC(=O)[C@](C)(O)[C@@H](O)[C@H]2CO1`: in series [1], the Activity entry is listed as “Non-toxic”.

As for `C[C@H]1CC(=O)O[C@@H]1[C@@](C)(O)/C=C/C1=CC2=CC(=O)[C@](C)(O)[C@@H](O)C2=CO1`, the Activity entry in series [1] was “Non-toxic”.

What is called pIC50 is the negative decadic logarithm of the IC50, by convention in mol/L. `C[C@H]1CC(=O)O[C@@H]1[C@](C)(O)/C=C/C1=CC2=CC(=O)[C@](C)(O)[C@@H](O)[C@@H]2CO1`: the results for the Activity result in [2], in series [1] and in [10] were “Dose-dependent-effect”, “Non-toxic” and “Dose-dependent-effect”, respectively. The inhibition entry in series [3] was “Dose-dependent-effect”. Moreover, the outcome in series [4], in series [5] and in series [6] was Active. Besides, the result in series [7] and in [8] was inactive. Besides, the pIC50 in [9] was 4.78.

For `C[C@H]1CCO[C@@H]1[C@@](C)(O)/C=C/C1=CC2=CC(=O)[C@](C)(O)[C@@H](O)[C@]2(O)CO1`, the Activity entry in series [1] is “Non-toxic”.

Turning to `O=c1c(O)c(-c2ccc(O)c(O)c2)oc2cc(O)cc(O)c12` [QUERCETIN], the pIC50 in series [11] was 4.81.

For `C[C@H]1CC(=O)O[C@@H]1[C@](C)(O)/C=C/C1=CC2=CC(=O)[C@](C)(O)[C@@H](O)C2=CO1`, the Activity entry in [1] is recorded as “Non-toxic”.

With `C[C@H]1CC(=O)O[C@@H]1[C@](C)(O)/C=C/C1=CC2=C(Cl)C(=O)[C@](C)(O)[C@H](O)[C@@H]2CO1`, in series [1], the Activity entry is on record as “Non-toxic”.

In the case of `C[C@H]1CCO[C@@H]1[C@](C)(O)/C=C/C1=CC2=CC(=O)[C@](C)(O)[C@@H](O)[C@]2(O)CO1`, the Activity result in [1] is listed as “Non-toxic”.

For the molecule `C[C@H]1CC(=O)O[C@@H]1[C@](C)(O)/C=C/C1=CC2=CC(=O)[C@](C)(O)[C@@H](O)[C@H]2CO1`, the Activity entry in [1] is given as “Non-toxic”.

Consider `C[C@H]1CCO[C@@H]1[C@](C)(O)/C=C/C1=CC2=CC(=O)[C@](C)(O)[C@@H](O)[C@@H]2CO1`, for which, in [1], the Activity result is given as “Non-toxic”.

Take `C[C@H]1CC(=O)O[C@@H]1[C@@](C)(O)/C=C/C1=CC2=C(Cl)C(=O)[C@](C)(O)[C@H](O)[C@@H]2CO1`: in series [1], the Activity result is listed as “Non-toxic”.

For the origin of these results see ChEMBL document CHEMBL6177966, “Sclerotiorin-Type Azaphilones Isolated from a Marine-Derived Fungus Microsphaeropsis arundinis P1B” (J Nat Prod, 2025).
